# Test results: ChEMBL document CHEMBL2069185, “Eunicidiol, an anti-inflammatory dilophol diterpene from Eunicea fusca” (J Nat Prod, 2012)
# Legend:
# Mus musculus [1] = test: Antiinflammatory activity in CD1 mouse ear edema model assessed as reduction in phorbol myristate acetate-induced edema administered topically at right ear 1 hr before phorbol myristate acetate challenge and measured 6 to 24 hrs post dose; format: functional
# Mus musculus [2] = test: Toxicity in CD1 mouse model phorbol myristate acetate-induced ear edema model at 0.1 mg/ear administered topically at right ear 1 hr before phorbol myristate acetate challenge and measured 24 hrs post dose; format: organism-based; details: in vivo, topical_or_ocular
# Mus musculus [3] = test: Antiinflammatory activity in CD1 mouse ear edema model assessed as reduction in phorbol myristate acetate-induced edema at 0.1 mg/ear administered topically at right ear 1 hr before phorbol myristate acetate challenge and measured 24 hrs post dose; format: functional
Structure (SMILES),inhibition (INH) (Mus musculus [1]),Activity (Mus musculus [2]),inhibition (INH) (Mus musculus [3])
C=C[C@@]1(C)CC[C@H](/C(C)=C/C=C/C(C)(C)O[C@@H]2OC[C@@H](O)[C@@H](O)[C@@H]2O)C[C@@H]1C(=C)C [FUSCOSIDE B],52%,,
CC(=O)O[C@@H]1[C@@H](O[C@H]2CC[C@H](C)[C@@]3(C)C[C@@H](/C(C)=C/C=C/C(C)(C)O)CC[C@H]23)OC[C@@H](O)[C@H]1O,85%,,
C=C1CC/C=C(\C)CC[C@H](/C(C)=C/C=C/C(C)(C)O)C[C@H]1O (relative stereo),,Non-toxic,
C=C[C@@]1(C)CC[C@H](/C(C)=C/C=C/C(C)(C)O)C[C@@H]1C(=C)C [FUSCOL],,Non-toxic,
C/C1=C\C[C@@H](/C(C)=C/C=C/C(C)(C)O)CC/C(C)=C/CC1 [EUNICOL],,Non-toxic,0.1%
